Results: patent US6657086B2, “C2-substituted indan-1-ols and their derivatives, processes for their preparation and their use as pharmaceuticals” (Aventis Pharma Deutschland GmbH, priority 2001, dated 2003)

Columns and labels:
[1] = tested on: female NMRI mice; experiment: Anorectic action: cumulative evaporated milk consumption after 24 h feed removal; type: in vivo; settings: compared with control animals
Method: The activity of the compounds was assayed as follows:
The anorectic action was tested on female NMRI mice. After removal of feed for 24 hours, the preparation to be tested was administered intraperitoneally (ip) or by gavage (po). The animals were housed singly and, with free access to drinking water, they were offered evaporated milk 30 minutes after administration of the preparation. The consumption of evaporated milk was determined and the general behavior of the animals was monitored every half an hour for 7 hours. The measured milk consumption was compared to that of vehicle-treated control animals.

| Structure (SMILES) | melting point | Reduction in cumulative milk consumption as % of the control ([1]; dose 20 mg/kg) | Reduction in cumulative milk consumption as % of the control ([1]; dose 50 mg/kg) |
| --- | --- | --- | --- |
| CCS(=O)(=O)C1Cc2cc(Cl)ccc2C1O (stereo not shown) [Example 3, 5-Chloro-2-ethanesulfonylindan-1-ol] | 145 °C |  |  |
| CS(=O)(=O)C1Cc2cc(Cl)ccc2C1O (stereo not shown) [Example 1, 5-Chloro-2-methylsulfonylindan-1-ol] | 163 °C | 50% |  |
| CSC1Cc2cc(Cl)ccc2C1O (stereo not shown) [Example 4, 5-Chloro-2-methylsulfanylindan-1-ol] |  |  | 85% |
